pIC50: −log10 of the molar value.
What was measured:
[1] = target: T1, Recombinant human BACE1 (Homo sapiens, UniProt P56817); experiment: Assay of BACE1 inhibitory activity: 384-well; assay type: biochemical; conditions: Assay format 384-well
T1 construct: purchased R&D Systems
Method: 5 μL of substrate peptide solution (Biotin-XSEVNLDAEFRHDSGC-Eu: X=ε-amino-n-capronic acid, Eu=Europium eryplate) was added to each well of 384-well plate (a black plate: Corning), and after addition of 0.1 μl of the compound of the present invention (DMSO solution) and 5 μl of Recombinant human BACE1 (R&D Systems), the reaction mixture was incubated at 25° C. for 2 hours. The substrate peptide was synthesized by reacting Cryptate TBPCOOH mono SMP (CIS bio international) with Biotin-XSEVNLDAEFRHDSGC (Peptide Institute, Inc.).
After the incubation for reaction, 10 μl of 8.0 μg/ml Streptavidin-XL665 (CIS bio International) dissolved in phosphate buffer (150 mmol/L K2HPO4-KH2PO4, pH 7.0, 0.008% Triton X-100, 0.8 mol/L KF) was added to each well and left stand at 25° C. for 30 minutes.

[2] = test system: Aβ production in neuroblastoma SH-SY5Y cells (SH/APPwt); experiment: β-amyloid (Aβ) production inhibitory effect in cell: 384-well; assay type: cell-based; conditions: Homo sapiens, Assay format 384-well
Method: Neuroblastoma SH-SY5Y cells (SH/APPwt) with human wild-type β-APT excessively expressed therein were prepared at 4×10^5 cells/mL, and 50 μl portions thereof were inoculated into each well of a 384-well culture plate (Corning) added 0.5 μl of the test compound of the present invention (DMSO solution). The final DMSO concentration was 1%, and the amount of the cell culture was 50 μl. After the incubation was performed for 21 hours from the cell seeding, 5 μl of the culture supernatant was collected from each fraction. The amount of the Aβ in each fraction was measured.
The Aβ amount was measured as follows. 5 μl of a homogeneous time resolved fluoresrenee (HTRF) measurement reagent (Amyloid β1-40 peptide; CIS bio international) and 5 μl of the culture supernatant were put into a 384′well plate (a black plate: Corning) and mixed with each other, and then left standing overnight at 4° C. while the light was shielded. Then, the fluorescence intensity (620 nm and 665 nm) was measured with EnViston (Perkin Elmer life sciences).

[3] = target: T2, CYP1A2 (Homo sapiens, UniProt P05177); experiment: CYP inhibition test (CYP1A2); assay type: in vitro ADME; conditions: pooled human liver microsomes; 7-ethoxyresorufin O-deethylation
T2 construct: The commercially available pooled human liver microsomes are used as an enzyme resource; from tissue; host or cells: pooled human liver microsomes
T2 sequence (P05177 1-516): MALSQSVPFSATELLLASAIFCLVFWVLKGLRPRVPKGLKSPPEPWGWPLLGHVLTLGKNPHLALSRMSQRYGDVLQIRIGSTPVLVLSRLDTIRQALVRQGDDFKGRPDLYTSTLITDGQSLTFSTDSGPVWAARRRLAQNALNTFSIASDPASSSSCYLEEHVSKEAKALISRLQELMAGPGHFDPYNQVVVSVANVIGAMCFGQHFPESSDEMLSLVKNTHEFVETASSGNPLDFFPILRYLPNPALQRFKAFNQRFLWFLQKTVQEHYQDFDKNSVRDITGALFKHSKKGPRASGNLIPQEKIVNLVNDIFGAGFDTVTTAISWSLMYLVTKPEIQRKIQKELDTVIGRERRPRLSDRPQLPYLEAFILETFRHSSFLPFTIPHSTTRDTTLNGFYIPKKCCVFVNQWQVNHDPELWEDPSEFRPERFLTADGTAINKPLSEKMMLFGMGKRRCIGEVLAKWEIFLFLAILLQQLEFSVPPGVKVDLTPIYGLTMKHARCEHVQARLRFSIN
Description: (§1) The CYP inhibition test is a test to assess the inhibitory effect of a compound of the present invention towards typical substrate metabolism reactions on CYP enzymes in human liver microsomes. The marker reactions on human main five CYP enzymes (CYP1A2, 2C9, 2C19, 2D6, and 3A4) are used as follows: 7-ethoxyresorufin O-deethylation (CYP1A2), tolbutamide methyl-hydroxylation (CYP2C9), mephenytoin 4′-hydroxylation (CYP2C19), dextromethorphan O-demethylation (CYP2D6), and terfenadine hydroxylation (CYP3A4). The commercially available pooled human liver microsomes are used as an enzyme resource.
(§2) The reaction conditions were as follows: substrate, 0.5 μmol/L ethoxyresorufin (CYP1A2), 100 μmol/L tolbutamide (CYP2C9), 50 μmol/L, S-mephenytoin (CYP2C19), 5 μmol/L dextromethorphan (CYP2D6), 1 μmol/L terfenadine (CYP3A4): reaction time, 15 minutes: reaction temperature, 37° C.; enzyme, pooled human liver microsomes 0.2 mg protein/mL; concentrations of the compound of the present invention, 1, 5, 10, 20 μmol/L (four points).
(§3) Five kinds of substrates, human liver microsomes, and a compound solution of the present invention in […] Hepes buffer were added to a 96-well plate at the composition as described above as a reaction solution. NADPH as a cofactor was added to this 96-well plate in order to initiate metabolism reactions. After the incubation at 37° C.for […], a methanol/acetonitrile=1/1 (v/v) solution was added to stop the reaction. After the centrifugation at 3000 rpm for 15 minutes, resorufin (CYP1A2 metabolite) in the supernatant was quantified by a fluorescent plate reader, and hydroxytolbutamide (CYP2C9 metabolite), 4′-hydroxymephenytoin (CYP2C19 metabolite), dextrorphan (CYP2D6 metabolite), and terfenadine alcohol metabolite (CYP3A4 metabolite) in the supernatant were quantified by LC/MS/MS.
(§4) The sample adding DMSO to a reaction system instead of compound of the present invention solution was adopted as a control (100%) because DMSO was used as a solvent to dissolve a compound of the present invention. Remaining activity (%) was calculated at each concentration of a compound of the present invention, and IC50 value was calculated by reverse presumption by a logistic model using a concentration and an inhibition rate.

[4] = target: T3, CYP2C9 (Homo sapiens, UniProt P11712); experiment: CYP inhibition test (CYP2C9); assay type: in vitro ADME; conditions: pooled human liver microsomes; tolbutamide methyl-hydroxylation
T3 construct: The commercially available pooled human liver microsomes are used as an enzyme resource; from tissue; host or cells: pooled human liver microsomes
Description: as §1, §2, §3, §4

[5] = target: T4, CYP2C19 (Homo sapiens, UniProt P33261); experiment: CYP inhibition test (CYP2C19); assay type: in vitro ADME; conditions: pooled human liver microsomes; mephenytoin 4′-hydroxylation
T4 construct: The commercially available pooled human liver microsomes are used as an enzyme resource; from tissue; host or cells: pooled human liver microsomes
Description: as §1, §2, §3, §4

[6] = Solubility test; assay type: physicochemical; conditions: for solubility kinetic at 1 h: JP 1st fluid, pH 1.2, simulated gastric fluid, kinetic from dmso stock, read-out: JP1; for solubility kinetic at 16 h: solubility in JP 2nd fluid B, 1% DMSO, *2: shaken for 1 hour at room temperature, read-out: JP2_μM
Method: A 10 mmol/L solution of the compound was prepared with DMSO, and 2 μL of the compound of the present invention solution was added, respectively, to 198 μL of JP 1st fluid (water was added to 2.0 g of sodium chloride and 7.0 ml, of hydrochloric acid to reach 1000 mL) and JP 2nd fluid (See Table 4). The mixture was left standing for 16 hours at 25° C. or shaken for 1 hour at ruom temperature, and the mixture was vacuum-filtered. The […] was ten or one hundred-fold diluted with metbanol/water=1/1 (v/v) or MeCN/MeOH/H2O(=1/1/2), and the compound concent ration in the filtrate was measured with LC/MS or solid phase extraction (SPE)/MS by the absolute calibration method.

[7] = target: T5, human ether-a-go-go related gene (hERG) channel (Homo sapiens, UniProt Q12809); experiment: hERG test; assay type: cell-based; conditions: % inhibition of IKr tail peak current at 3 uM; CHO cells expressing hERG
T5 construct: expressed in transfected cells; host or cells: CHO cells
Description: For the purpose of assessing risk of an electrocardiogram QT interval prolongation, effects on delayed rectifier K+ current (IKr), which plays an important role in the ventricular repolarization process of the compound of the present invention, was studied using CHO cells expressing human ether-a-go-go related gene (hERG) channel.
A cell was retained at a membrane potential of […] by whole cell patch clamp method using an automated patch clamp system (QPatch:Sophion Bioscience A/S). After application of leak potential at −50 mV, IKr induced by depolarization pulse stimulation at +20 mV for 2 seconds and, further, repolarization pulse stimulation at −50 mV for 2 seconds was recorded.

[8] = target: T6, CYP3A4 (Homo sapiens, UniProt P08684); experiment: CYP inhibition test (CYP3A4); assay type: in vitro ADME; conditions: pooled human liver microsomes; terfenadine hydroxylation
T6 construct: The commercially available pooled human liver microsomes are used as an enzyme resource; from tissue; host or cells: pooled human liver microsomes
Description: as §1, §2, §3, §4

[9] = Metabolic stability test; assay type: in vitro ADME; conditions: human liver microsomes, 37° C., 30 minutes, NADPH
Method: Using a commercially available pooled human liver microsomes, a compound of the present invention was reacted for a constant time, a remaining rate was calculated by comparing a reacted sample and an unreacted sample, thereby, a degree of metabolism in liver was assessed.
A reaction was performed (oxidative reaction) at 37° C. for 0 minute or 30 minutes in the presence of 1 mmol/L NADPH in 0.2 mL of a buffer (60 mmol/L Tris-HCl pH 7.4, 150 mmol/L potassium chloride, 10 mmol/L magnesium chloride) containing 0.5 mg protein/mL of human liver microsomes. After the reaction, 50 μL of the reaction solution was added to 100 μL of a methanol/acetonltrile=1/1 (v/v), mixed and centrifuged at 3000 rpm for 15 minutes. The compound of the present invention in the supernatant was quantified by LC/MS/MS or solid phase extraction (SPE)/MS, and a remaining amount of the compound of the present invention after the reaction area calculated, letting a compound amount at 0 minute reaction time to be 100%.

[10] = target: T7, CYP2D6 (Homo sapiens, UniProt P10635); experiment: CYP inhibition test (CYP2D6); assay type: in vitro ADME; conditions: pooled human liver microsomes; dextromethorphan O-demethylation
T7 construct: The commercially available pooled human liver microsomes are used as an enzyme resource; from tissue; host or cells: pooled human liver microsomes
Description: as §1, §2, §3, §4

T6 sequence (P08684 whole entry): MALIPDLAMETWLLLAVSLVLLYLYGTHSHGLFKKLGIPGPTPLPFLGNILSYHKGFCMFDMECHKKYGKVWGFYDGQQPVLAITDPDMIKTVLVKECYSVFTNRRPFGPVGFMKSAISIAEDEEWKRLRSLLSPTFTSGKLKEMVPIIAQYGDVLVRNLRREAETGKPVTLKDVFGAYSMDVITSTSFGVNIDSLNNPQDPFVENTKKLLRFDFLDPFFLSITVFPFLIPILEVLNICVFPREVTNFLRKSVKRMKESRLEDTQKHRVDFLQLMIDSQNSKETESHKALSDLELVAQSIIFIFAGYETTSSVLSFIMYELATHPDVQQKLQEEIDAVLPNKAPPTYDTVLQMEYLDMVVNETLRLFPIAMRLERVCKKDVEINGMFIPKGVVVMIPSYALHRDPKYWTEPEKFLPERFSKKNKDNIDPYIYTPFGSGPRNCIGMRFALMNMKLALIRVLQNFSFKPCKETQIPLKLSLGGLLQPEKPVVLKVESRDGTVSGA
T4 sequence (P33261 whole entry): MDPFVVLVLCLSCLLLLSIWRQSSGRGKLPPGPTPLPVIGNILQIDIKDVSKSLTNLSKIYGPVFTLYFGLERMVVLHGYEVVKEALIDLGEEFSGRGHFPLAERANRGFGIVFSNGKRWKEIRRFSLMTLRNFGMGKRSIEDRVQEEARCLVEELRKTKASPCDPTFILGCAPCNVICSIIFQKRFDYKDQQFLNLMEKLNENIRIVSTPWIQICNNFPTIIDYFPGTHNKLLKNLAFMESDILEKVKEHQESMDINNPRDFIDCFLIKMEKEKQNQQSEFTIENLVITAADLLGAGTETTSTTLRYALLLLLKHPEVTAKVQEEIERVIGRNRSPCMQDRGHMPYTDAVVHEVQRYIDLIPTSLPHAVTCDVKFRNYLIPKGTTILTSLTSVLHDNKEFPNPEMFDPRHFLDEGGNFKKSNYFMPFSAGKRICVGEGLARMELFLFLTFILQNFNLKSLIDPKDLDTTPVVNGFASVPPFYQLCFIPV
T1 sequence (P56817 46-501): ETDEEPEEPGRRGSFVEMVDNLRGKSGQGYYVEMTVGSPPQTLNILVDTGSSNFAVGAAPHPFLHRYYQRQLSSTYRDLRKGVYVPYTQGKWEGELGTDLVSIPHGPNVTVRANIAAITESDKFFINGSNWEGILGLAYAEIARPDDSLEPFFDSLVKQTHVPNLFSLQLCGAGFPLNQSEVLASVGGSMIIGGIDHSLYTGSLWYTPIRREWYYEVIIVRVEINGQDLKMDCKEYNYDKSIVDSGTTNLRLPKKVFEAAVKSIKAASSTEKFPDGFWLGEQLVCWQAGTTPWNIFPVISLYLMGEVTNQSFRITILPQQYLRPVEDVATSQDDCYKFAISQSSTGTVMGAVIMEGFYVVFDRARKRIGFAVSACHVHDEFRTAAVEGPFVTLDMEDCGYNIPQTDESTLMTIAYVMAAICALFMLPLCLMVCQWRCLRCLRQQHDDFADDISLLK
T3 sequence (P11712 whole entry): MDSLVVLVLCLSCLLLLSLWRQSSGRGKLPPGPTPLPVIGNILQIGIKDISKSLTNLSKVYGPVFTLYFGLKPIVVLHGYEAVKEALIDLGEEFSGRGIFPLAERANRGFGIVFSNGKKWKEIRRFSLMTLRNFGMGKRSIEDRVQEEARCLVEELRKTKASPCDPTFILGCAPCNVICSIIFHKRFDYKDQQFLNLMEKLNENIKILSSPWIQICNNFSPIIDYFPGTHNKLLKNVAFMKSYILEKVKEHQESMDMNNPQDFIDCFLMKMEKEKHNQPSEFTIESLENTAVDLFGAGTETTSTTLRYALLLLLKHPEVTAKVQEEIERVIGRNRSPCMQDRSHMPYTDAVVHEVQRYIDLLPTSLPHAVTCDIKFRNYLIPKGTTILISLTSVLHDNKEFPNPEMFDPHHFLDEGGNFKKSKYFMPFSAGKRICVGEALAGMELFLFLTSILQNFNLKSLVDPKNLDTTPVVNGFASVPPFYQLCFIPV
T5 sequence (Q12809 whole entry): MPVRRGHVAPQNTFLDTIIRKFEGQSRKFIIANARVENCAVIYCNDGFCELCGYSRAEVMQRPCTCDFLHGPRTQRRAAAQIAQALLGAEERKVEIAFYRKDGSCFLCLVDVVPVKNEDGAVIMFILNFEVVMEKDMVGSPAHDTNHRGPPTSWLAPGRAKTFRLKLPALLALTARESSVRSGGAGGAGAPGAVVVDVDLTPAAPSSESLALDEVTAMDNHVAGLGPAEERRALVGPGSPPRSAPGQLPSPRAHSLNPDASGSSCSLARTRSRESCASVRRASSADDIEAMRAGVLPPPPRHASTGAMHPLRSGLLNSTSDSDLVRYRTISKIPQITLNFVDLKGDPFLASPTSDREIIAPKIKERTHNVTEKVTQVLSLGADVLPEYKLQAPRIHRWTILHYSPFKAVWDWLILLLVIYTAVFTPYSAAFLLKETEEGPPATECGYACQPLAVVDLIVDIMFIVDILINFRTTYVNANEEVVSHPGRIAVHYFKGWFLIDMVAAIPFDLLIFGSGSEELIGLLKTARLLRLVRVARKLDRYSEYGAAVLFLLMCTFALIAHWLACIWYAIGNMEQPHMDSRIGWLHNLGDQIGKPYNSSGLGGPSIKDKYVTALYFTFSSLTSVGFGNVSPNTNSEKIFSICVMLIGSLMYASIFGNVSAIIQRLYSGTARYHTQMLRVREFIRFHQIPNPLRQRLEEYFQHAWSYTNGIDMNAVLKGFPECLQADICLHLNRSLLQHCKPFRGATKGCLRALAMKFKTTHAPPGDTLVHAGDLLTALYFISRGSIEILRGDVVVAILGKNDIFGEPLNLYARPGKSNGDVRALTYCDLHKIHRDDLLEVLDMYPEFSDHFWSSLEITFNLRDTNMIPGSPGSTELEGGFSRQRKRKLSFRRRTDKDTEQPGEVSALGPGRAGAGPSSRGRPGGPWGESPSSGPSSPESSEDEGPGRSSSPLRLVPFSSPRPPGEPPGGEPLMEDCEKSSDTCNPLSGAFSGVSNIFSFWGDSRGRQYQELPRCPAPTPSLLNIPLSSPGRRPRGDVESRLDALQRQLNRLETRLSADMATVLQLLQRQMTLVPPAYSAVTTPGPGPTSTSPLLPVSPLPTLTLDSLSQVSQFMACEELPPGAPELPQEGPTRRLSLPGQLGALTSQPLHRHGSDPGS
T7 sequence (P10635 whole entry): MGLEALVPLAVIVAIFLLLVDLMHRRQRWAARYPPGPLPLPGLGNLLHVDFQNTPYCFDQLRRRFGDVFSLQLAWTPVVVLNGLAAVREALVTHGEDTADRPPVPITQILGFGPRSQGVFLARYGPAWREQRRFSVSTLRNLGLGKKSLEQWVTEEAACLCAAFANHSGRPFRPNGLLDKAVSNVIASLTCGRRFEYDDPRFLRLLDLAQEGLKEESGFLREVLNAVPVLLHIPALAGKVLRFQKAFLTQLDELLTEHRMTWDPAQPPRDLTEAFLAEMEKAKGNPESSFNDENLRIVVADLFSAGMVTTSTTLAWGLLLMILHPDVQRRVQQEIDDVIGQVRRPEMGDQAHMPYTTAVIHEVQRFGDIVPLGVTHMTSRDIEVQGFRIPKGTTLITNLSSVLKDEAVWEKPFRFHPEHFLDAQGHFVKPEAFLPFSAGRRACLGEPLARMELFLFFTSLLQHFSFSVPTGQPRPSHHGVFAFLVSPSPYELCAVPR

Row | Compound | pIC50 [1] | pIC50 [2] | pIC50 [3] | pIC50 [4] | pIC50 [5] | solubility kinetic at 1 h [6] [µM] | solubility kinetic at 16 h [6] [µM] | hERG_3 uM_% [7] [%] | pIC50 [8] | remaining % [9] [%] | pIC50 [10]
1 | C[C@]1(c2cc(NC(=O)c3ccc(OCF)cn3)ccc2F)N=C(N)SCC12CC(F)(F)C2 [Compound I-58] | 7.86 | 9.17 | ≤ 4.70 | ≤ 4.70 | ≤ 4.70 | > 50 | >50 | 58.6 |  |  | 
2 | COCC(F)(F)[C@H]1OC(N)=N[C@](C)(c2cc(NC(=O)c3cnc(OC)cn3)ccc2F)[C@H]1F [Compound I-80] | 7.45 | 7.74 | ≤ 4.70 | ≤ 5.00 | ≤ 4.70 | > 50 | >50 | 8.9 | ≤ 5.00 |  | 
3 | COc1ccc(C(=O)Nc2ccc(F)c([C@@]3(C)N=C(N)O[C@H](C(F)(F)C4CC4)[C@@H]3F)c2)nn1 [Compound I-95] | 7.63 | 6.35 | ≤ 4.70 | ≤ 5.00 | ≤ 4.70 | > 50 | >50.0 |  | ≤ 5.00 | 105 | 
4 | Cc1cc(C#N)cnc1C(=O)Nc1ccc(F)c([C@@]2(C)N=C(N)O[C@H](C3(F)CC3)[C@@H]2F)c1 [Compound I-99] | 7.61 | 9.00 | ≤ 4.70 | ≤ 5.00 | ≤ 4.70 | > 50 | >50.0 |  | ≤ 4.70 | 89.4 | ≤ 5.00

— patent US20170073337A1, “DIHYDROTHIAZINE AND DIHYDROOXAZINE DERIVATIVES HAVING BACE1 INHIBITORY ACTIVITY” (Shionogi & Co., Ltd., priority 2014, published 2017)
